Reference: US9139615B2, “High-affinity, dimeric inhibitors of PSD-95 as efficient neuroprotectants against ischemic brain damage and for treatment of pain” (University of Copenhagen, priority 2011, dated 2015)
Where “and” joins values, the source holds several entries; their conditions need not be identical. Identical values can stand only once. Entries after “also recorded” stand apart in the source; their conditions may differ. Where a SMILES comes first, the peptide text is derived from it. The star is where a group is joined. 5FAM = O=C1OC2(c3ccc(O)cc3Oc3cc(O)ccc32)c2ccc(C(=O)*)cc21

Columns and labels:
[1] = Spinal cord detection of fluorescent PSD-95 inhibitors; type: in vivo, mice; conditions: 30 mg/kg i.p., 30 min after injection
Experimental: To investigate if AB143 and AB145 are able to enter spinal cord tissue, they were administered to the mice by intraperitoneal injection (30 mg/kg). The drug-treated mice were decapitated 30 min after injection, and the spinal cord was carefully dissected out, to which 5% trichloroacetic acid (TCA) (300 μL per 0.1 g tissue) was added and the tissue homogenized with an ultrasonic homogenizer (on ice). The homogenated tissue was vortexed and centrifuged for 10 min (20000 g at 4° C.). The supernatant was transferred to a test tube and evaporated, and the residue was reconstituted in water and its fluoresence intensity was determined by using a fluorescence plate reader (excitation/emission:470/525 nm). For quantification of the compounds, a standard curve was prepared by spiking a known amount of AB143 and AB145 into spinal cord tissue from control mice prior to homogenization, followed by work-up and analysis similar to the drug-treated mice.

[2] = Blood-brain barrier permeability of fluorescent analogues; type: in vivo, mice; conditions: 5-FAM-labeled, 3 nmol/g i.v., 2 hours after injection, unmanipulated mice
Experimental: VI.ii. Blood-brain Barrier Permeability. […] After injection of the compounds, the mice are perfused with paraformaldehyde and the brains are carefully removed, post-fixed in paraformaldehyde, processed into coronal sections, and quantified for fluorescence (Example 8).
The fluorescent ligands were injected intravenously (3 nmol/g) and the location of the ligands was detected by fluorescence microscopy of coronal brain slices (n=8) mice, was evaluated 2 hours after injection. Two sections of the brain, prior to and two after the anterior commissure (n=5), were selected for BBB permeability analysis. The anterior commissure (Bregma: −0.3) was used as a fix point in the brain in order to analyse anatomically identical brain sections. The intensity of the 5-FAM fluorophore was measured semi-quantitatively using a fluorescence microscopy system (Olympus System Microscope model BX-51, Denmark) with a 10× objective (Olympus 10×/0.15 UPlanApo) connected to a high-resolution microscope digital camera (Olympus model DP70), which transferred images to an image-capturing software (Image Pro Plus software). All images were taken using the same microscope settings and with constant camera exposure time. Intensities were quantified using the ImageJ software.
5-FAM-labeled derivative of Tat-NR2B9c is designated MS23. After injection of the compounds, the mice are perfused with paraformaldehyde and the brains are carefully removed, post-fixed in paraformaldehyde, processed into coronal sections, and quantified for fluorescence.
C57BL/6 mice with 6 hour post-surgical survival time were euthanized by cervical dislocation. C57BL/6 mice with 48 hour post-surgical survival were anesthetized with an overdosed of pentobarbital (the pharmacy of the Faculty of Life Sciences, University of Copenhagen, Denmark) in order to collect blood and tissue samples. All brains were carefully removed, frozen in gaseous CO2 and cut into 6 series of 30 μm coronal cryostat sections and stored at −80° C. until further use. C57BL/6J mice used to investigate the blood-brain barrier (BBB) permeability of AB143, AB145, AB148, and MS23 were deeply anesthetized and perfused through the left ventricle, using 10 ml chilled Soerensens phosphate buffer (SB) ([…], 125 mM Na2HPO4, pH 7.4) followed by 20 mL SB containing 4% paraformaldehyde (PFA). The brains were carefully removed and post-fixed in 4% PFA for 1 hour followed by immersion in SB containing 20% sucrose over night. The brains were frozen on gaseous CO2 and processed into 16 μm coronal cryostat sections.

[3] = tested on: pMCAO model of ischemic stroke; test: Grip strength after pMCAO; type: in vivo, mice; conditions: 48 hours after pMCAO, 3 nmol/g i.v.
Experimental: The grip strength meter (BIO-GT-3, BIOSEB) allows the study of neuromuscular functions in mice by determining the maximum force that is required to make the mouse release its grip. The grip strength in individual paws was used to measure the severity of the pMCAO-induced asymmetry. The mouse is allowed to grasp a metal grid and then pulled backwards in the horizontal plane. The force applied to the grid is recorded as the peak tension. The strength of individual front paws and the total grip strength (both paws simultaneously) were measured before (baseline) and after pMCAO. Each mouse is tested in 5 sequential trials and the highest grip strength is recorded as the best score.

[4] = Human blood plasma stability assay; type: in vitro ADME
Experimental: Ligands (dimeric PSD-95 inhibitors) for the PDZ domain of PSD-95 were dissolved in human blood plasma (270 μL; 3H Biomedical, Sweden, cat no 1300-1-P50) to a concentration of 0.25 mM (30 μL, of 2.5 mM) and incubated at 37° C. Aliquots (30 μL) were removed at various time intervals (e.g. 0, 5, 10, 20, 40, 80, 160, 320, 960, 1280, 2550, 4560 and 7240 min) and quenched with 60 μL, trichloroacetic acid (aq., 5%). The aliquots were vortexed, and incubated 15 min, at 4° C. prior to centrifugation at 18,000 g for 2 min. The supernatants were analyzed by analytical RP-HPLC (UV218) to quantify compound relative to time zero, and also evaluated qualitatively by ESI-LC/MS in order to identify the compound (m/z) in the sample. Procaine (positive control) and procainamide (negative control) were investigated at 50 μM to validate the procedure. Ligand recoveries following the precipitation procedure were between 85-95%.

[5] = Physiological status of pMCAO mice (blood values, body weight, temperature, survival); type: in vivo; conditions: mouse, in vivo
Experimental: The physiological status of the mice was carefully monitored prior to and during pMCAO surgery in order to exclude the observed effects of treatment with dimeric PSD-95 inhibitors being due to secondary conditions (e.g. disease-related) resulting from the experimental procedure.
9.10 Body weight monitoring: The body weight of each mouse was registered during pre-training, before surgery, and at 24 and 48 hours after surgery and no differences were seen between the treatment groups (FIG. 13).
9.11 Temperature monitoring: The rectal temperature of the mouse was continuously measured using a thermocoupled probe connected to a Model Bat 12 unit (Physitemp). The temperature was measured prior to and 30 min after pMCAO in addition to 30 min and 2.5 hours after i.v. injection, i.e. 1 and 3 hours after pMCAO.
9.12 Blood gas analysis: One samples of venous blood was taken for blood gas analysis of PO2/PCO2 electrolytes, glucose, lactate, and hematocrit, 30 min after compound administration (1 hour after pMCAO). A capillary heparin coated tube was inserted along the inner corner of eye and turned until it penetrated the conjunctiva. A sample of blood (150 μl) was collected and stored on ice until gas analysis using the GEM Premier 300 blood gas instrument (Instrumentation Laboratory) Quality controls (QC ContrlIL9) were purchased from IL Sensor Systems. Also, no differences were detected in blood gas parameters (PO2/PCO2, pH, electrolytes, glu/lac), which were similar between the groups and within normal range, when compared to unmanipulated control mice (Table 4).

[6] = tested on: pMCAO model of ischemic stroke; test: Rotarod performance test after pMCAO; type: in vivo, mice; conditions: 48 hours after pMCAO
Experimental: The rotarod (LE 8200, Panlab) is well suited to evaluate motor activity in rodents, experimental compound effects on central nervous system damage, or disease effects on motor coordination, assessed by the time during which the animal remains walking in a rotating drum. The rotation of the rotarod is motor drived and accelerates from 0 to 40 rounds per min (rpm) over a time period of 5 min, at which time all mice have fallen off the rod. All mice were tested in 4 repeating trials with a 20 min interval (resting time). Prior to surgery mice were pre-trained to stay on the rod for 30 seconds, at 4 rpm.

## CC[C@H](C)[C@H](NC(=O)CCOCCOCCN(CCOCCOCCC(=O)N[C@H](C(=O)N[C@@H](CCC(=O)O)C(=O)N[C@H](C(=O)N[C@@H](CC(=O)O)C(=O)N[C@H](C(=O)O)C(C)C)[C@@H](C)O)[C@@H](C)CC)C(=O)[C@H](CCCNC(=N)N)NC(=O)[C@H](CCCNC(=N)N)NC(=O)[C@H](CCCNC(=N)N)NC(=O)[C@H](CCC(N)=O)NC(=O)[C@H](CCCNC(=N)N)NC(=O)[C@H](CCCNC(=N)N)NC(=O)[C@H](CCCCN)NC(=O)[C@H](CCCCN)NC(=O)[C@H](CCCNC(=N)N)NC(=O)CNC(=O)[C@H](Cc1ccc(O)cc1)NC(=O)c1ccc2c(c1)C(=O)OC21c2ccc(O)cc2Oc2cc(O)ccc21)C(=O)N[C@@H](CCC(=O)O)C(=O)N[C@H](C(=O)N[C@@H](CC(=O)O)C(=O)N[C@H](C(=O)O)C(C)C)[C@@H](C)O [AB145, F-Tat-NPEG4(IETDV)2]
[1]
  fluorescence in spinal cord tissue compared to saline-treated mice: clear and distinct fluorescence increase
[1]; mice
  concentration in spinal cord, Average ± SEM: 0.074 nmol/g and 0.074 ± 0.022 nmol/g
  concentration in spinal cord, individual samples: 0.035 nmol/g and 0.132 nmol/g and 0.108 nmol/g and 0.084 nmol/g and 0.012 nmol/g
[2]
  entry into brain, fluorescence microscopy of coronal brain slices: enter the brain; also recorded: Detection

## CC[C@H](C)[C@H](NC(=O)CCOCCOCCN(CCOCCOCCC(=O)N[C@H](C(=O)N[C@@H](CCC(=O)O)C(=O)N[C@H](C(=O)N[C@@H](CC(=O)O)C(=O)N[C@H](C(=O)O)C(C)C)[C@@H](C)O)[C@@H](C)CC)C(=O)[C@@H](CCCNC(=N)N)NC(=O)[C@@H](CCCCN)NC(=O)[C@@H](CCCCN)NC(=O)[C@@H](CCCNC(=N)N)NC(=O)[C@@H](CCCNC(=N)N)NC(=O)[C@@H](CCC(N)=O)NC(=O)[C@@H](CCCNC(=N)N)NC(=O)[C@@H](CCCNC(=N)N)NC(=O)[C@H](N)CCCNC(=N)N)C(=O)N[C@@H](CCC(=O)O)C(=O)N[C@H](C(=O)N[C@@H](CC(=O)O)C(=O)N[C@H](C(=O)O)C(C)C)[C@@H](C)O [AB147, Retroinverso-D-Tat-NPEG4(IETDV)2]
[3]
  grip strength asymmetry between right and left front paw: no asymmetry and not
  total grip strength (both paws) compared to baseline: no significant change in total grip strength; also recorded: No difference compared to baseline
[4]
  degradation in human blood plasma: No detectable degradation
[5]
  Hct: 41.3 ± 0.6%
  [Ca2+]: 1.31 ± 0.01 mmol/L
  [K+]: 5.1 ± 0.18 mmol/L
  [Lactate]: 0.90 ± 0.05 mmol/L
  [Na+]: 147 ± 0.5 mmol/L
  pCO2: 104 ± 2.5 mmHg
  pO2: 56.4 ± 2.9 mmHg
[6]; 3 nmol/g i.v., four trials
  total time spent on the rod: 92.6 ± 4.5 s
[6]; trials T1-T4
  short term learning skill improvement on rotarod compared to saline: more pronounced short term learning skill improvement

## CC[C@H](C)[C@H](NC(=O)[C@H](CO)NC(=O)[C@H](CO)NC(=O)[C@H](CC(C)C)NC(=O)[C@H](CCCCN)NC(=O)[C@H](CCCNC(=N)N)NC(=O)[C@H](CCCNC(=N)N)NC(=O)[C@H](CCCNC(=N)N)NC(=O)[C@H](CCC(N)=O)NC(=O)[C@H](CCCNC(=N)N)NC(=O)[C@H](CCCNC(=N)N)NC(=O)[C@H](CCCCN)NC(=O)[C@H](CCCCN)NC(=O)[C@H](CCCNC(=N)N)NC(=O)CNC(=O)[C@H](Cc1ccc(O)cc1)NC(=O)c1ccc2c(c1)C(=O)OC21c2ccc(O)cc2Oc2cc(O)ccc21)C(=O)N[C@@H](CCC(=O)O)C(=O)N[C@@H](CO)C(=O)N[C@@H](CC(=O)O)C(=O)N[C@H](C(=O)O)C(C)C [MS23, F-Tat-NR2B9c, reference compound] (5FAM-YGRKKRRQRRRKLSSIESDV-OH)
[2]
  entry into brain, fluorescence microscopy of coronal brain slices: Detection

## CC[C@H](C)[C@H](N)C(=O)N[C@@H](CCC(=O)O)C(=O)N[C@H](C(=O)N[C@@H](CC(=O)O)C(=O)N[C@H](C(=O)O)C(C)C)[C@@H](C)O [IETDV, reference compound]
[4]; human, human blood plasma, 0.25 mM, 37° C., in vitro, read-out: half-life (T1/2) in human blood plasma
  half-life at 0.25 mM: 37 ± 6 min
